Experimental data: US20250026724A1, “(1,4,5-TRISUBSTITUTED 1H-PYRAZOL-3-YL)OXY-2-ALKYLTHIOALKYL ACIDS AND -ALKYL ACID DERIVATIVES, SALTS THEREOF AND USE THEREOF AS ACTIVE HERBICIDAL INGREDIENTS” (BAYER AKTIENGESELLSCHAFT, priority 2021, published 2025)

Experiments:
Test in all cases: Post-emergence herbicidal action, greenhouse pot trial
Format in all cases: in vivo
[1] = test system: Digitaria sanguinalis (DIGSA); conditions: visual rating after about 3 weeks; for pest or weed control at 320 g/ha: Digitaria sanguinalis, 504 h, read-out: Post-emergence effect at 320 g/ha against DIGSA in %
Method: (§1) Seeds of monocotyledonous and dicotyledonous weeds and crop plants are placed in sandy loam in plastic or organic planting pots, covered with soil and cultivated in a greenhouse under controlled growth conditions. 2 to 3 weeks after sowing, the trial plants are treated at the one-leaf stage. The compounds of the invention, formulated in the form of wettable powders (WP) or as emulsion concentrates (EC), are then sprayed onto the green parts of the plants as aqueous suspension or emulsion with addition of 0.5% additive at a water application rate equivalent to 600 l/ha. After about 3 weeks of keeping the trial plants in the greenhouse under optimum growth conditions, the effect of the preparations is rated visually in comparison to untreated controls. For example, 100% activity=the plants have died, 0% activity=like control plants.
(§2) Tables B1 to B14 below show the effects of selected compounds of the general formula (I) according to Table 1 on various harmful plants and at an application rate corresponding to 320 g/ha or lower, which were obtained by the trial procedure specified above. The appendices “a”, “b” and “c” give differentiation by dosage used with otherwise the same harmful plants tested.
(§3) As shown by results from Tables B1 to B19, inventive compounds of the general formula (I) in the case of post-emergence treatment have good herbicidal efficacy against harmful plants, for example Abutilon theophrasti (ABUTH), Alopecurus myosuroides (ALOMY), Amaranthus retroflexus (AMARE), Avena fatua (AVEFA), Digitaria sanguinalis (DIGSA), Echinochloa crus-galli (ECHCG), Bassia scoparia (KCHSC), Lolium rigidum (LOLRI), Matricaria inodora (MATIN), Pharbitis purpurea (PHBPU), Polygonum convolvulus (POLCO), Setaria viridis (SETVI), Veronica persica (VERPE) and Viola tricolor (VIOTR) at an application rate of 320 g of active substance or less per hectare, and good crop plant compatibility in the case of organisms such as Oryza sativa (ORYSA), Zea mays (ZEAMX), Brassica napus (BRSNW), Glycine max (GLXMA) and Triticum aestivum (TRZAS) at an application rate of 320 g or less per hectare.

[2] = test system: Pharbitis purpurea (PHBPU); conditions: visual rating after about 3 weeks; for pest or weed control at 80 g/ha / pest or weed control at 320 g/ha: Ipomoea purpurea, 504 h; for pest or weed control at 80 g/ha: read-out: Post-emergence effect at 80 g/ha against PHBPU in %; for pest or weed control at 320 g/ha: read-out: Post-emergence effect at 320 g/ha against PHBPU in %
Method: as §1, §2, §3

[3] = test system: Polygonum convolvulus (POLCO); conditions: visual rating after about 3 weeks; for pest or weed control at 320 g/ha: read-out: Post-emergence effect at 320 g/ha against POLCO in %
Method: as §1, §2, §3

[4] = test system: Echinochloa crus-galli (ECHCG); conditions: visual rating after about 3 weeks; for pest or weed control at 320 g/ha: read-out: Post-emergence effect at 320 g/ha against ECHCG in %
Method: as §1, §2, §3

Bassia scoparia (KCHSC) = conditions: Bassia scoparia, 504 h, read-out: Post-emergence effect against KCHSC
Method: as §1, §2, §3

[5] = test system: Amaranthus retroflexus (AMARE); conditions: visual rating after about 3 weeks; for pest or weed control at 320 g/ha / pest or weed control at 80 g/ha: Amaranthus retroflexus, 504 h; for pest or weed control at 320 g/ha: read-out: Post-emergence effect at 320 g/ha against AMARE in %; for pest or weed control at 80 g/ha: read-out: Post-emergence effect at 80 g/ha against AMARE in %
Method: as §1, §2, §3

[6] = test system: Matricaria inodora (MATIN); conditions: visual rating after about 3 weeks; for pest or weed control at 320 g/ha / pest or weed control at 80 g/ha: Tripleurospermum inodorum, 504 h; for pest or weed control at 320 g/ha: read-out: Post-emergence effect at 320 g/ha against MATIN in %; for pest or weed control at 80 g/ha: read-out: Post-emergence effect at 80 g/ha against MATIN in %
Method: as §1, §2, §3

Setaria viridis (SETVI) = conditions: 320 g/ha, visual rating after about 3 weeks; for pest or weed control at 320 g/ha: Setaria viridis, 504 h, read-out: Post-emergence effect at 320 g/ha against SETVI in %
Method: as §1, §2, §3

Viola tricolor (VIOTR) = test system: Viola tricolor (VIOTR)
Method: as §1, §2, §3

Avena fatua (AVEFA) = conditions: Avena fatua, 504 h, 320 g/ha, visual rating after about 3 weeks, read-out: Post-emergence effect at 320 g/ha against AVEFA in %
Method: as §1, §2, §3

[7] = test system: Abutilon theophrasti (ABUTH); conditions: visual rating after about 3 weeks; for pest or weed control at 320 g/ha: read-out: Post-emergence effect at 320 g/ha against ABUTH in %
Method: as §1, §2, §3

[8] = Fallopia convolvulus, 504 h, 320 g/ha
[9] = Echinochloa crus-galli, 504 h, 320 g/ha
[10] = Viola tricolor, 504 h, 320 g/ha, read-out: Post-emergence effect against VIOTR
[11] = Abutilon theophrasti, 504 h, 320 g/ha
[12] = Viola tricolor, 504 h, 80 g/ha, read-out: Post-emergence effect against VIOTR

| Structure (SMILES) | pest or weed control at 320 g/ha ([1]; 320 g/ha) | pest or weed control at 320 g/ha ([2]; 320 g/ha) | pest or weed control at 320 g/ha [3, 8] | pest or weed control at 320 g/ha [4, 9] | pest or weed control at 320 g/ha ([5]; 320 g/ha) | pest or weed control at 320 g/ha ([6]; 320 g/ha) | pest or weed control at 320 g/ha (Setaria viridis (SETVI)) | pest or weed control at 320 g/ha (Viola tricolor (VIOTR); [10]) | pest or weed control at 320 g/ha [7, 11] | pest or weed control at 80 g/ha (Viola tricolor (VIOTR); [12]) | other results |
| --- | --- | --- | --- | --- | --- | --- | --- | --- | --- | --- | --- |
| CSC(Oc1nn(-c2ncccc2F)c(-c2ccc(F)nc2)c1Br)C(=O)O (single isomer, unassigned) [Example I-24] | 90% | 90% | 90% | 90% | 80% | 80% | 90% | 90% | 80% | – | pest or weed control at 80 g/ha [2]: 90%; pest or weed control at 80 g/ha (Bassia scoparia (KCHSC)): 80%; pest or weed control at 320 g/ha (Bassia scoparia (KCHSC)): 80%; pest or weed control at 320 g/ha (Avena fatua (AVEFA)): 80% |
| CCOC(=O)C(Oc1nn(-c2ncccc2F)c(-c2ccc(F)nc2)c1Br)SC (single isomer, unassigned) [Example I-29] | – | – | – | – | – | – | – | – | – | – | Post-emergence effect at 320 g/ha against DIGSA in % ([1]; 320 g/ha): 90%; Post-emergence effect at 320 g/ha against PHBPU in % ([2]; 320 g/ha): 90%; Post-emergence effect at 80 g/ha against POLCO in % ([3]; 80 g/ha): 90%; Post-emergence effect at 320 g/ha against POLCO in % ([3]; 320 g/ha): 90%; Post-emergence effect at 320 g/ha against ECHCG in % ([4]; 320 g/ha): 90%; pest or weed control at 80 g/ha (Bassia scoparia (KCHSC)): 80%; pest or weed control at 320 g/ha (Bassia scoparia (KCHSC)): 90%; Post-emergence effect at 320 g/ha against AMARE in % ([5]; 320 g/ha): 80%; Post-emergence effect at 320 g/ha against MATIN in % ([6]; 320 g/ha): 80%; Post-emergence effect at 320 g/ha against SETVI in % (Setaria viridis (SETVI)): 90%; Post-emergence effect against VIOTR (Viola tricolor (VIOTR); 80 g/ha): 80%; Post-emergence effect against VIOTR (Viola tricolor (VIOTR); 320 g/ha): 90%; Post-emergence effect at 320 g/ha against ABUTH in % ([7]; 320 g/ha): 90% |
| CCOC(=O)C(Oc1nn(-c2cc(F)ccc2F)c(-c2cncc(F)c2)c1I)SC (stereo not drawn) [Example I-02] | – | – | – | 90% | – | 90% | 80% | 90% | – | 80% | pest or weed control at 80 g/ha [6]: 80% |
| COC(=O)C(Oc1nn(-c2cc(F)ccc2F)c(-c2cncc(F)c2)c1Br)SC (stereo not drawn) [Example I-07] | 90% | – | – | 90% | – | 90% | 90% | 90% | – | 90% | pest or weed control at 80 g/ha [6]: 80%; pest or weed control at 20 g/ha (Viola tricolor (VIOTR); Viola tricolor, 504 h, 20 g/ha, read-out: Post-emergence effect against VIOTR): 80% |
| CCOC(=O)C(Oc1nn(-c2ncccc2F)c(-c2ccc(F)nc2)c1C(F)(F)F)SC (stereo not drawn) [Example I-09] | – | 90% | 90% | 80% | – | 80% | – | 90% | 80% | – | – |
| CCOC(=O)C(Oc1nn(-c2ncccc2F)c(-c2ccc(F)cc2F)c1Br)SC (stereo not drawn) [Example I-14] | 80% | 80% | 90% | – | 80% | – | 80% | – | 80% | – | – |
| CCOC(=O)C(Oc1nn(-c2cnccn2)c(-c2ccc(F)nc2)c1Br)SC (stereo not drawn) [Example I-17] | 80% | 80% | – | 80% | 80% | – | 80% | – | – | – | pest or weed control at 80 g/ha [2]: 80%; pest or weed control at 320 g/ha (Avena fatua (AVEFA)): 80% |
| CCOC(=O)C(Oc1nn(-c2ncccc2F)c(-c2ccc(F)nc2)c1I)SC (stereo not drawn) [Example I-18] | 80% | 90% | 90% | 100% | 90% | – | 90% | 90% | 90% | 90% | pest or weed control at 80 g/ha [2]: 80%; pest or weed control at 80 g/ha ([3]; Fallopia convolvulus, 504 h, 80 g/ha, read-out: Post-emergence effect at 80 g/ha against POLCO in %): 90%; pest or weed control at 80 g/ha [5]: 80% |
| CCOC(=O)C(Oc1nn(-c2ncccc2F)c(-c2ccc(F)nc2)c1C1CC1)SC (stereo not drawn) [Example I-20] | – | – | – | 90% | 80% | – | – | 90% | 90% | 80% | pest or weed control at 80 g/ha [5]: 80%; pest or weed control at 80 g/ha ([7]; Abutilon theophrasti, 504 h, 80 g/ha, read-out: Post-emergence effect at 80 g/ha against ABUTH in %): 80% |
| CSC(Oc1nn(-c2ccccc2F)c(-c2ccc(F)nc2)c1I)C(=O)O (stereo not drawn) [Example I-21] | – | – | 80% | 90% | 90% | – | 90% | 90% | 80% | 80% | – |
| CSC(Oc1nn(-c2ncccc2F)c(-c2ccc(F)nc2)c1C1CC1)C(=O)O (stereo not drawn) [Example I-33] | – | – | – | 80% | – | – | – | 80% | – | – | pest or weed control at 320 g/ha (Avena fatua (AVEFA)): 80% |
| CSC(Oc1nn(-c2ncccc2F)c(-c2ccc(F)nc2)c1Br)C(=O)O (stereo not drawn) [Example I-34] | 90% | 90% | 90% | 90% | 80% | 80% | 90% | 90% | 90% | – | Post-emergence effect at 80 g/ha against DIGSA in % ([1]; 80 g/ha): 80%; pest or weed control at 80 g/ha [2]: 80%; pest or weed control at 80 g/ha ([4]; Echinochloa crus-galli, 504 h, 80 g/ha, read-out: Post-emergence effect at 80 g/ha against ECHCG in %): 80%; pest or weed control at 320 g/ha (Bassia scoparia (KCHSC)): 80% |
| CSC(Oc1nn(-c2ncccc2F)c(-c2ccc(F)nc2)c1C(F)(F)F)C(=O)O (stereo not drawn) [Example I-38] | – | – | 90% | – | – | 80% | – | 90% | 80% | – | – |
| CCOC(=O)C(Oc1nn(-c2ccccc2F)c(-c2ccc(F)nc2)c1I)SC (stereo not drawn) [Example I-68] | 80% | – | 80% | 90% | 90% | – | 90% | 90% | – | – | – |
